The values that follow come from patent US8288426B2, “Pesticidal composition comprising fenamidone and an insecticide compound” (Bayer CropScience AG, priority 2006, dated 2012).

Holding throughout (assay type): in vivo
Common to all, as to conditions: mortality

Test [1] concerns Plutella xylostella. Kind of test: Plutella xylostella - test (cabbage leaf dip, larvae). As to the method:
(§1) To produce a suitable preparation of active compound, 1 part by weight of active compound is mixed with the stated amount of solvent and emulsifier, and the concentrate is diluted with emulsifier-containing water to the desired concentration.
Cabbage leaves (Brassica oleracea) are treated by being dipped into the preparation of the active compound of the desired concentration and are infested with larvae of the diamond back moth (Plutella xylostella) as long as the leaves are still moist.
(§2) After the specified period of time, the mortality in % is determined. 100% means that all the caterpillars have been killed; 0% means that none of the caterpillars have been killed.

For test [2], the system named is Spodoptera frugiperda. The experiment in a line: Spodoptera frugiperda - test (cabbage leaf dip, larvae). As for the experimental part:
as §1
Cabbage leaves (Brassica oleracea) are treated by being dipped into the preparation of the active compound of the desired concentration and are infested with larvae of the fall army worm (Spodoptera frugiperda) as long as the leaves are still moist.
as §2

Test [3] concerns Spodoptera exigua. The experiment in a line: Spodoptera exigua - test (cabbage leaf dip, larvae). As to the method:
as §1
Cabbage leaves (Brassica oleracea) are treated by being dipped into the preparation of the active compound of the desired concentration and are infested with larvae of the beet army worm (Spodoptera exigua) as long as the leaves are still moist.
as §2

Consider `CN/C(=N\[N+](=O)[O-])NCc1cnc(Cl)s1` [Clothianidin, clothianidin], for which the “Efficacy in % after 4d” value in test [1] (4 ppm, second part of Table A) came to 0%; in test [2] (4 ppm) it was 0%.

On to `CSC1=N[C@@](C)(c2ccccc2)C(=O)N1Nc1ccccc1` [Fenamidone, fenamidone], for which the “Efficacy in % after 4d” value in test [1] (200 ppm, first part of Table A) is recorded as 35%; in test [1] (200 ppm, second part of Table A), 65%; in test [1] (500 ppm, first part of Table A) it was 75%; in test [2] (200 ppm), 0%. For the same compound, the “Efficacy in % after 3d” value in test [3] (100 ppm) and in test [3] (200 ppm) was 0% throughout.

As to `O=[N+]([O-])NC1=NCCN1Cc1ccc(Cl)nc1` [Imidacloprid, imidacloprid], in test [1] (20 ppm, first part of Table A), the “Efficacy in % after 4d” value is 5%. Further, the “Efficacy in % after 3d” value in test [3] (20 ppm) was found to be 0%.

`N#C/N=C1\SCCN1Cc1ccc(Cl)nc1` [Thiacloprid, thiacloprid]: the “Efficacy in % after 3d” value in test [3] (100 ppm) is reported as 10%.

Regarding `CN1COCN(Cc2cnc(Cl)s2)/C1=N\[N+](=O)[O-]` [Thiamethoxam, thiamethoxam], the “Efficacy in % after 4d” value in test [1] (4 ppm, first part of Table A) was 0%.
